Data from PMC3846293 (Bioorganic & medicinal chemistry letters, 2013).
pIC50: −log10 of the molar value. Marks after values point to notes of the source that are not given here.

Experiments:
[1] = molecular target: rat mGlu5 (Rattus norvegicus, UniProt P31424); assay: Calcium mobilization mGlu5 assay; format: cell-based; conditions: for mGlu5 pIC50 (± SEM) / pIC50: HEK293A cells expressing rat mGlu5, EC80 glutamate; for mGlu5 pIC50 (± SEM): average of n ≥ 3; for pIC50: read-out: mGlu5 IC50
[2] = test system: marble burying; conditions: mice; ref 7a,d; cited from earlier work
[3] = prior PK studies in rats; cited from earlier work
[4] = test system: marble burying; assay: Mouse marble burying model of anxiety; conditions: IP dosing, 15 minute pretreatment; all doses greater than or equal to 3 mg/kg; n = 8 per dose; P < 0.001 vs. vehicle
[5] = test system: panel of 68 clinically relevant GPCRs, ion channels, kinases, and transporters; assay: Radioligand binding assay panel; conditions: 10 μM compound; significant = more than 50% inhibition of radioligand binding

Chain of rat mGlu5 (P31424 21-1203): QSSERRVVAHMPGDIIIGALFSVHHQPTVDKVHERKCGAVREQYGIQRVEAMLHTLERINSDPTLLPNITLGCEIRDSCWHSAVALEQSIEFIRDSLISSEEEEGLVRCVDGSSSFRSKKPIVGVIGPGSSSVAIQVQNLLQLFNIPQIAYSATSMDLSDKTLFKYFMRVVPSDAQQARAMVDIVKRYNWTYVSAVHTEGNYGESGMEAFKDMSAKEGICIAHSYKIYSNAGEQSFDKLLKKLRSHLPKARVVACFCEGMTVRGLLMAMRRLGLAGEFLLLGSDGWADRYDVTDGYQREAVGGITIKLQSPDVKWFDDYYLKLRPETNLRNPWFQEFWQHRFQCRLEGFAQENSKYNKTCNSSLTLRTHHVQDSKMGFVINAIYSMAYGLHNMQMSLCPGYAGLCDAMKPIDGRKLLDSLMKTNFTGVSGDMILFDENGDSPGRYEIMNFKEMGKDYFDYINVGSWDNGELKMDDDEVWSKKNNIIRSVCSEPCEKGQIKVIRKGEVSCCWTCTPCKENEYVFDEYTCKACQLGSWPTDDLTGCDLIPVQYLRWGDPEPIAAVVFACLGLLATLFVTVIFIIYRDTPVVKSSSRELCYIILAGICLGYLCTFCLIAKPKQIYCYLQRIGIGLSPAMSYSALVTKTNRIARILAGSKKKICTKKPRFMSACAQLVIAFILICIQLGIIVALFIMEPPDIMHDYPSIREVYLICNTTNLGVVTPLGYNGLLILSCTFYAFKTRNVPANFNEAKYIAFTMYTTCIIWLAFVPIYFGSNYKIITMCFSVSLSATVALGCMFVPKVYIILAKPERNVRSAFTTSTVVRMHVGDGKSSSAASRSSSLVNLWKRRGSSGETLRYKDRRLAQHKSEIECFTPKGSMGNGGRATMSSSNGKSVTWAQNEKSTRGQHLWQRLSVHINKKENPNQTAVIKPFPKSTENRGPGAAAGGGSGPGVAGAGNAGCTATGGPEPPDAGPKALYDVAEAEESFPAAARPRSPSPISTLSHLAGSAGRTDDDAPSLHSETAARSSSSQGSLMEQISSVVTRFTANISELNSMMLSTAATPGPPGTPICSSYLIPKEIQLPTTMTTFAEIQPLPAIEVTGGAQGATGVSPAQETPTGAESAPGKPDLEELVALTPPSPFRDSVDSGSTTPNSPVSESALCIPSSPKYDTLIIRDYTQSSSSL

O=C(Nc1cccc(Cl)c1)c1cccc(Oc2cccnc2)c1 [Compound 3]
fold less potent than 2 ([1]; mGlu5 potency vs 2): more than 20 fold

O=C(Nc1ccncn1)c1cccc(Oc2cccnc2)c1 [Compound 11]
mGlu5 pIC50 (± SEM) [1]: < 5.0 ^c
pIC50 [1]: < 5.00

O=C(Nc1nc(C(F)(F)F)cs1)c1cccc(Oc2cccnc2)c1 [Compound 20]
mGlu5 pIC50 (± SEM) [1]: < 4.5
pIC50 [1]: < 4.52

Cc1cccc(NC(=O)c2cc(Cl)cc(Oc3cnc(C)nc3)c2)n1 [Compound 76]
fold decrease in potency vs. 66 ([1]; mGlu5 potency vs 66): 5 fold

CN1CC(=O)NC1=NC(=O)Nc1cccc(Cl)c1 [fenobam]
efficacy in marble burying model [2]: effective

Cc1csc(NC(=O)c2cc(F)cc(Oc3cncnc3)c2)n1 [Compound 24]
clearance in rats [3]: moderate to high clearance
inhibition of marble burying [4]: Statistically significant inhibition
responses in radioligand binding panel of 68 targets [5]: no significant responses

Cc1ncc(Oc2cc(Cl)cc(C(=O)Nc3ccc(F)cn3)c2)cn1 [Compound 75]
fold loss of potency vs. 28 ([1]; mGlu5 potency vs 28): > 100 fold

Cc1cccc(C#Cc2ccccc2)n1 [MPEP]
efficacy in marble burying model [2]: effective

CCCc1csc(NC(=O)c2cc(Cl)cc(Oc3cncnc3)c2)n1 [Compound 38]
fold loss of potency compared to 25 ([1]; mGlu5 potency vs 25): 7 fold

Cc1nsc(NC(=O)c2cccc(Oc3cccnc3)c2)n1 [Compound 19]
mGlu5 pIC50 (± SEM) [1]: < 4.5
pIC50 [1]: < 4.52

CCCc1csc(NC(=O)c2cc(F)cc(Oc3cncnc3)c2)n1 [Compound 33]
fold loss of potency compared to 24 ([1]; mGlu5 potency vs 24): 10 fold
